{"source": "ChEMBL document CHEMBL6127101", "about": "“Wee1 inhibitor optimization through deep-learning-driven decision making” (Eur J Med Chem, 2024)", "key": {"Wee1-like protein kinase": {"target": "Wee1-like protein kinase (Homo sapiens, UniProt P30291)", "sequence (P30291 whole entry)": "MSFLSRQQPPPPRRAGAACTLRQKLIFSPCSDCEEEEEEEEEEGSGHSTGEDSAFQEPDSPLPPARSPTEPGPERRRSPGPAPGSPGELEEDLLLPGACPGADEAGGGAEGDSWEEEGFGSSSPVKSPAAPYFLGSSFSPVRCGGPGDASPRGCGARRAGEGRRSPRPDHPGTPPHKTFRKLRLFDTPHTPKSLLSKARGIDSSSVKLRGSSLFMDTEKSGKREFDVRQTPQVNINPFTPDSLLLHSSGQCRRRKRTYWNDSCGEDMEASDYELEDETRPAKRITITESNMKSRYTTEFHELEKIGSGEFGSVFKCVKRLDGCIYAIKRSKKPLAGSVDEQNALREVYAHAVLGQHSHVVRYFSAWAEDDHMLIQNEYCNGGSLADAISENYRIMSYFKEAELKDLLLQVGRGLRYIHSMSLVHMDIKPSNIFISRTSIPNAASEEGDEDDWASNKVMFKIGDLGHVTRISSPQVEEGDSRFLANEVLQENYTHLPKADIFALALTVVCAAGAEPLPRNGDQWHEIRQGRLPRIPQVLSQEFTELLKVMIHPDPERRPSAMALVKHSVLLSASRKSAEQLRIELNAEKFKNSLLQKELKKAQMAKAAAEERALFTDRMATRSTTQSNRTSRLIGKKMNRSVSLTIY", "assay": "Inhibition of Wee-1 (unknown origin) using Poly-Lys Tyr as substrate incubated for 60 mins in presence of ATP by ADP-Glo Kinase assay"}, "OVCAR-3": {"tested_on": "OVCAR-3", "assay": "Inhibition of cell viability of human OVCAR-3 cells incubated for 72 hrs by Cell Titer-Glo assay", "assay_type": "functional, cell-based", "conditions": "OVCAR-3, 72 h"}, "C-33-A [1]": {"tested_on": "C-33-A", "assay": "Inhibition of cell viability of human C-33-A cells incubated for 72 hrs by Cell Titer-Glo assay", "assay_type": "functional, cell-based"}, "WiDr": {"tested_on": "WiDr", "assay": "Inhibition of cell viability of human WiDr cells incubated for 72 hrs by Cell Titer-Glo assay", "assay_type": "functional, cell-based"}, "A-427": {"tested_on": "A-427", "assay": "Inhibition of cell viability of human A-427 cells incubated for 72 hrs by Cell Titer-Glo assay", "assay_type": "functional, cell-based", "conditions": "A-427, 72 h"}, "NCI-H446": {"tested_on": "NCI-H446", "assay": "Inhibition of cell viability of human NCI-H446 cells incubated for 72 hrs by Cell Titer-Glo assay", "conditions": "NCI-H446, 72 h"}, "C-33-A [2]": {"tested_on": "C-33-A", "assay": "Inhibition of cell viability of human C-33-A cells incubated for 72 hrs by Cell Titer-Glo assay relative to control", "assay_type": "functional"}}}
{"molecule": "CC1(N)CCN(c2ccc(Nc3ncc(-c4cnco4)c(-c4snc(N5CCC(N)C5)c4F)n3)cc2)CC1", "note": "(stereo not given)", "values": [{"measurement": "IC50", "setting": "Wee1-like protein kinase", "result": 47.1, "unit": "nM"}]}
{"molecule": "CN1CCN(c2ccc(Nc3ncc(-c4cnco4)c(-c4cnc(N5CC[C@H](O)C5)s4)n3)cc2)CC1", "values": [{"measurement": "IC50", "setting": "OVCAR-3", "result": 2110, "unit": "nM"}, {"measurement": "IC50", "setting": "C-33-A [1]", "result": 527, "unit": "nM"}, {"measurement": "IC50", "setting": "WiDr", "result": 2170, "unit": "nM"}, {"measurement": "IC50", "setting": "Wee1-like protein kinase", "result": 20.9, "unit": "nM"}, {"measurement": "IC50", "setting": "A-427", "result": 565, "unit": "nM"}, {"measurement": "IC50", "setting": "NCI-H446", "result": 1660, "unit": "nM"}]}
{"molecule": "CN1CCN(c2ccc(Nc3ncc(-c4cncs4)c(-c4cc5ccccc5o4)n3)cc2)CC1", "values": [{"measurement": "IC50", "setting": "OVCAR-3", "result": 736, "unit": "nM"}, {"measurement": "IC50", "setting": "C-33-A [1]", "result": 458, "unit": "nM"}, {"measurement": "IC50", "setting": "WiDr", "result": 855, "unit": "nM"}, {"measurement": "IC50", "setting": "Wee1-like protein kinase", "result": 2.3, "unit": "nM"}, {"measurement": "IC50", "setting": "A-427", "result": 463, "unit": "nM"}, {"measurement": "IC50", "setting": "NCI-H446", "result": 1160, "unit": "nM"}]}
{"molecule": "CC1(N)CCN(c2ccc(Nc3ncc(-c4cnco4)c(-c4cc5ccccc5o4)n3)cc2)CC1", "values": [{"measurement": "IC50", "setting": "OVCAR-3", "result": 1500, "unit": "nM"}, {"measurement": "IC50", "setting": "Wee1-like protein kinase", "result": 13.5, "unit": "nM"}, {"measurement": "IC50", "setting": "A-427", "result": 1450, "unit": "nM"}, {"measurement": "IC50", "setting": "NCI-H446", "result": 709, "unit": "nM"}]}
{"molecule": "COc1cc(Nc2ncc(-c3cncs3)c(-c3cc4ccccc4o3)n2)ccc1N1CCN(C)CC1", "values": [{"measurement": "IC50", "setting": "Wee1-like protein kinase", "result": 1.9, "unit": "nM"}, {"measurement": "IC50", "setting": "NCI-H446", "result": 2040, "unit": "nM"}]}
{"molecule": "Cc1cc(-c2ccnc(-c3nc(Nc4ccc(N5CCC(C)(N)CC5)cc4)ncc3-c3cnco3)c2)n[nH]1", "values": [{"measurement": "IC50", "setting": "Wee1-like protein kinase", "result": 895, "unit": "nM"}]}
{"molecule": "CC1(N)CCN(c2ccc(Nc3ncc(-c4cnco4)c(-c4cnc(N5CC(O)C5)s4)n3)cc2)CC1", "values": [{"measurement": "IC50", "setting": "Wee1-like protein kinase", "result": 33.7, "unit": "nM"}]}
{"molecule": "CN1CCN(c2ccc(Nc3ncc(-c4cnco4)c(-c4cnc(N5CC[C@H](F)C5)s4)n3)cc2)CC1", "values": [{"measurement": "IC50", "setting": "OVCAR-3", "result": 414, "unit": "nM"}, {"measurement": "IC50", "setting": "C-33-A [1]", "result": 130, "unit": "nM"}, {"measurement": "IC50", "setting": "WiDr", "result": 423, "unit": "nM"}, {"measurement": "IC50", "setting": "Wee1-like protein kinase", "result": 3.6, "unit": "nM"}, {"measurement": "IC50", "setting": "A-427", "result": 211, "unit": "nM"}, {"measurement": "IC50", "setting": "NCI-H446", "result": 562, "unit": "nM"}]}
{"molecule": "CN1CCN(c2ccc(Nc3ncc(-c4cncs4)c(-c4cnc(N5CC(O)C5)s4)n3)cc2)CC1", "values": [{"measurement": "IC50", "setting": "OVCAR-3", "result": 352, "unit": "nM"}, {"measurement": "IC50", "setting": "C-33-A [1]", "result": 277, "unit": "nM"}, {"measurement": "IC50", "setting": "WiDr", "result": 1020, "unit": "nM"}, {"measurement": "IC50", "setting": "Wee1-like protein kinase", "result": 3.6, "unit": "nM"}, {"measurement": "IC50", "setting": "A-427", "result": 369, "unit": "nM"}, {"measurement": "IC50", "setting": "NCI-H446", "result": 622, "unit": "nM"}]}
{"molecule": "CC1(N)CCN(c2ccc(Nc3ncc(-c4cnco4)c(-c4cc(N5CC[C@H](N)C5)ns4)n3)cc2)CC1", "values": [{"measurement": "IC50", "setting": "Wee1-like protein kinase", "result": 47.1, "unit": "nM"}, {"measurement": "IC50", "setting": "NCI-H446", "result": "> 10000", "unit": "nM"}]}
{"molecule": "COc1cc(Nc2ncc(-c3cncs3)c(-c3cnc(N4CC(O)C4)s3)n2)ccc1N1CCN(C)CC1", "values": [{"measurement": "IC50", "setting": "OVCAR-3", "result": 252, "unit": "nM"}, {"measurement": "IC50", "setting": "C-33-A [1]", "result": 105, "unit": "nM"}, {"measurement": "IC50", "setting": "WiDr", "result": 415, "unit": "nM"}, {"measurement": "IC50", "setting": "Wee1-like protein kinase", "result": 3.7, "unit": "nM"}, {"measurement": "IC50", "setting": "A-427", "result": 163, "unit": "nM"}, {"measurement": "IC50", "setting": "NCI-H446", "result": 313, "unit": "nM"}]}
{"molecule": "COc1cc(Nc2ncc(-c3cnco3)c(-c3cnc(N4CC[C@H](O)C4)s3)n2)ccc1N1CCN(C)CC1", "values": [{"measurement": "IC50", "setting": "OVCAR-3", "result": 1840, "unit": "nM"}, {"measurement": "IC50", "setting": "C-33-A [1]", "result": 410, "unit": "nM"}, {"measurement": "IC50", "setting": "WiDr", "result": 1470, "unit": "nM"}, {"measurement": "IC50", "setting": "Wee1-like protein kinase", "result": 22.4, "unit": "nM"}, {"measurement": "IC50", "setting": "A-427", "result": 589, "unit": "nM"}, {"measurement": "IC50", "setting": "NCI-H446", "result": 1410, "unit": "nM"}]}
{"molecule": "COc1cc(Nc2ncc(-c3cnco3)c(-c3cnc(N4CC[C@H](F)C4)s3)n2)ccc1N1CCN(C)CC1", "values": [{"measurement": "IC50", "setting": "OVCAR-3", "result": 212, "unit": "nM"}, {"measurement": "IC50", "setting": "C-33-A [1]", "result": 62.6, "unit": "nM"}, {"measurement": "IC50", "setting": "WiDr", "result": 186, "unit": "nM"}, {"measurement": "IC50", "setting": "Wee1-like protein kinase", "result": 2.5, "unit": "nM"}, {"measurement": "IC50", "setting": "A-427", "result": 115, "unit": "nM"}, {"measurement": "IC50", "setting": "NCI-H446", "result": 300, "unit": "nM"}]}
{"molecule": "CN1CCN(c2ccc(Nc3ncc(-c4cncs4)c(-c4cnc(N5CC[C@H](O)C5)s4)n3)cc2)CC1", "values": [{"measurement": "IC50", "setting": "OVCAR-3", "result": 430, "unit": "nM"}, {"measurement": "IC50", "setting": "C-33-A [1]", "result": 167, "unit": "nM"}, {"measurement": "IC50", "setting": "WiDr", "result": 1110, "unit": "nM"}, {"measurement": "IC50", "setting": "Wee1-like protein kinase", "result": 4.2, "unit": "nM"}, {"measurement": "IC50", "setting": "A-427", "result": 362, "unit": "nM"}, {"measurement": "IC50", "setting": "NCI-H446", "result": 540, "unit": "nM"}]}
{"molecule": "COc1cc(Nc2ncc(-c3cncs3)c(-c3cnc(N4CC[C@H](O)C4)s3)n2)ccc1N1CCN(C)CC1", "values": [{"measurement": "IC50", "setting": "OVCAR-3", "result": 229, "unit": "nM"}, {"measurement": "IC50", "setting": "C-33-A [1]", "result": 99.5, "unit": "nM"}, {"measurement": "IC50", "setting": "WiDr", "result": 538, "unit": "nM"}, {"measurement": "IC50", "setting": "Wee1-like protein kinase", "result": 2, "unit": "nM"}, {"measurement": "IC50", "setting": "A-427", "result": 152, "unit": "nM"}, {"measurement": "IC50", "setting": "NCI-H446", "result": 417, "unit": "nM"}]}
{"molecule": "C=CCn1c(=O)c2cnc(Nc3ccc(N4CCN(C)CC4)cc3)nc2n1-c1ccc2c(n1)[C@@](O)(CC)CC2", "note": "[AZENOSERTIB]", "values": [{"measurement": "IC50", "setting": "OVCAR-3", "result": 245, "unit": "nM"}, {"measurement": "IC50", "setting": "C-33-A [1]", "result": 382, "unit": "nM"}, {"measurement": "IC50", "setting": "WiDr", "result": 256, "unit": "nM"}, {"measurement": "IC50", "setting": "Wee1-like protein kinase", "result": 1.3, "unit": "nM"}, {"measurement": "IC50", "setting": "A-427", "result": 371, "unit": "nM"}, {"measurement": "IC50", "setting": "NCI-H446", "result": 250, "unit": "nM"}]}
{"molecule": "CC1(N)CCN(c2ccc(Nc3ncc(-c4cnco4)c(-c4cc5ccc(CO)cc5o4)n3)cc2)CC1", "values": [{"measurement": "IC50", "setting": "Wee1-like protein kinase", "result": 13.5, "unit": "nM"}]}
{"molecule": "COc1cc(Nc2ncc(-c3cncs3)c(-c3cnc(N4CC[C@H](F)C4)s3)n2)ccc1N1CCN(C)CC1", "values": [{"measurement": "IC50", "setting": "OVCAR-3", "result": 86.7, "unit": "nM"}, {"measurement": "IC50", "setting": "C-33-A [1]", "result": 23.1, "unit": "nM"}, {"measurement": "IC50", "setting": "WiDr", "result": 85, "unit": "nM"}, {"measurement": "IC50", "setting": "Wee1-like protein kinase", "result": 2, "unit": "nM"}, {"measurement": "IC50", "setting": "A-427", "result": 34.5, "unit": "nM"}, {"measurement": "IC50", "setting": "NCI-H446", "result": 93.9, "unit": "nM"}]}
{"molecule": "CC1(N)CCN(c2ccc(Nc3ncc(-c4cnco4)c(-c4cccc(C(C)(C)O)c4)n3)cc2)CC1", "values": [{"measurement": "IC50", "setting": "Wee1-like protein kinase", "result": 158, "unit": "nM"}]}
{"molecule": "CN1CCN(c2ccc(Nc3ncc(-c4cncs4)c(-c4cnc(N5CC[C@H](F)C5)s4)n3)cc2)CC1", "values": [{"measurement": "IC50", "setting": "OVCAR-3", "result": 161, "unit": "nM"}, {"measurement": "IC50", "setting": "WiDr", "result": 203, "unit": "nM"}, {"measurement": "IC50", "setting": "Wee1-like protein kinase", "result": 1.8, "unit": "nM"}, {"measurement": "IC50", "setting": "A-427", "result": 98.2, "unit": "nM"}, {"measurement": "IC50", "setting": "NCI-H446", "result": 150, "unit": "nM"}, {"measurement": "inhibition (INH)", "setting": "C-33-A [2]", "result": 43.6, "unit": "%"}]}
